± gives the expanded uncertainty stated by the source.
Experiments:
[1] = 293.15 K; 101 kPa; Liquid mixture 1; pendant drop method
[2] = for mass density: 101.33 kPa, Liquid, Pycnometric method; for surface tension liquid-gas: Pendant drop shape

| Structure (SMILES) | mass density ([2]; 293.15 K) | surface tension liquid-gas ([2]; 293.15 K) | further results |
| --- | --- | --- | --- |
| CCCCCCCCn1cc[n+](C)c1.O=S(=O)([N-]S(=O)(=O)C(F)(F)F)C(F)(F)F + O | – | – | interfacial tension [1]: 22.81 ± 0.41 mN/m |
| OCCO [1,2-ethanediol] | 1121 ± 7 kg/m3 | – | – |
| CCCCCCCCn1cc[n+](C)c1.N#C[N-]C#N [3-methyl-1-octylimidazolium dicyanamide] | 1013 ± 3 kg/m3 | 36.86 ± 0.66 mN/m | – |
| CCCCCCCCn1cc[n+](C)c1.O=S(=O)([N-]S(=O)(=O)C(F)(F)F)C(F)(F)F | 1340 ± 4 kg/m3 | 30.55 ± 0.56 mN/m | – |
| CCCCCCN(CCCCCC)C(N(C)C)=[N+](CCCCCC)CCCCCC.N#C[N-]C#N | – | 21.35 ± 0.49 mN/m | – |
| CCCCCCCC[n+]1ccn(C)c1.[Cl-] [1-methyl-3-octylimidazolium chloride] | 971 ± 6 kg/m3 | 26.2 ± 0.57 mN/m | – |
| CCCCCCN(CCCCCC)C(N(C)C)=[N+](CCCCCC)CCCCCC.[Cl-] | – | 28.95 ± 0.57 mN/m | mass density ([2]; 298.15 K): 943 ± 50 kg/m3 |
| ClCCl [dichloromethane] | 1327 ± 9 kg/m3 | – | – |
| CCCC[n+]1ccn(C)c1.O=S(=O)([N-]S(=O)(=O)C(F)(F)F)C(F)(F)F | 1452 ± 13 kg/m3 | – | surface tension liquid-gas ([2]; 298.15 K): 38.37 ± 0.69 mN/m |
| CCCCn1cc[n+](C)c1.F[B-](F)(F)F [1-butyl-3-methylimidazolium tetrafluoroborate] | 1212 ± 5 kg/m3 | 44.28 ± 0.79 mN/m | mass density ([2]; 298.15 K): 1217 ± 12 kg/m3 |
| CCCCCCCCCCCCCC[P+](CCCCCC)(CCCCCC)CCCCCC.Cc1ccc(S(=O)(=O)[O-])cc1 [tetradecyl(trihexyl)phosphonium tosylate] | – | 23.2 ± 0.53 mN/m | mass density ([2]; 298.15 K): 1003 ± 22 kg/m3 |
| CCOS(=O)(=O)[O-].CCn1cc[n+](C)c1 [1-ethyl-3-methylimidazolium ethyl sulfate] | 1242 ± 4 kg/m3 | 46.13 ± 0.91 mN/m | – |
| CCCCCCCCCCCCCC[P+](CCCCCC)(CCCCCC)CCCCCC.[Cl-] [trihexyl(tetradecyl)phosphonium chloride] + O | – | – | interfacial tension [1]: 6.11 ± 0.17 mN/m |
| CCCCCCCCCCCCCC[P+](CCCCCC)(CCCCCC)CCCCCC.[Cl-] [trihexyl(tetradecyl)phosphonium chloride] | 918 ± 6 kg/m3 | 30.7 ± 0.56 mN/m | – |
| CCCCCCCCCCn1cc[n+](C)c1.F[B-](F)(F)F [1-decyl-3-methylimidazolium tetrafluoroborate] | 1076 ± 3 kg/m3 | 23.65 ± 0.48 mN/m | – |
| CCCCCCCCCCn1cc[n+](C)c1.N#C[N-]C#N [1-decyl-3-methylimidazolium dicyanamide] | 1003 ± 5 kg/m3 | 31.15 ± 0.57 mN/m | – |

| Structure (SMILES) | mass density ([2]; 293.15 K) | surface tension liquid-gas ([2]; 293.15 K) | further results |
| --- | --- | --- | --- |
| CCCCCCCCCCCCCC[P+](CCCCCC)(CCCCCC)CCCCCC.N#C[N-]C#N [tetradecyl(trihexyl)phosphonium dicyanamide] | – | 30.99 ± 0.61 mN/m | – |
| CCCCCCCC[N+](C)(CCCCCCCC)CCCCCCCC.O=S(=O)([N-]S(=O)(=O)C(F)(F)F)C(F)(F)F | – | 22.77 ± 0.43 mN/m | – |
| O [water] | 1013 ± 5 kg/m3 | – | – |
| CCCCCCCCO [octan-1-ol] | 831 ± 3 kg/m3 | – | – |
| CCCCCCCC[N+](C)(CCCCCCCC)CCCCCCCC.[Cl-] [N-methyl-N,N-dioctyl-1-octanaminium chloride] + O | – | – | interfacial tension [1]: 3.66 ± 0.36 mN/m |
| CCCCCCCC[n+]1ccn(C)c1.F[B-](F)(F)F [1-methyl-3-octylimidazolium tetrafluoroborate] | 1110 ± 5 kg/m3 | 33.22 ± 0.6 mN/m | mass density ([2]; 298.15 K): 1115 ± 46 kg/m3 |
| CCCCn1cc[n+](C)c1C.O=S(=O)([N-]S(=O)(=O)C(F)(F)F)C(F)(F)F | 1425 ± 24 kg/m3 | 26.66 ± 0.49 mN/m | – |
| CCCCCCCCO [octan-1-ol] + O | – | – | interfacial tension [1]: 8.3 ± 0.5 mN/m |
| CCCC[n+]1ccn(C)c1.O=S(=O)([N-]S(=O)(=O)C(F)(F)F)C(F)(F)F + O | – | – | interfacial tension [1]: 15.15 ± 0.55 mN/m |
| Cn1cc[n+](CCO)c1.N#C[N-]C#N [3-(2-hydroxyethyl)-1-methyl-1H-imidazol-3-ium dicyanoazanide] | 1179 ± 3 kg/m3 | 45.75 ± 0.81 mN/m | – |
| CCCCn1cc[n+](C)c1.N#CN=C=[N-] [1-butyl-3-methylimidazolium dicyanamide] | 1066 ± 10 kg/m3 | 38.14 ± 0.68 mN/m | – |
| CCCCCCCC[N+](C)(CCCCCCCC)CCCCCCCC.N#C[N-]C#N [N,N,N-trioctyl-N-methylammonium dicyanamide] | – | 28.8 ± 0.53 mN/m | mass density ([2]; 298.15 K): 890 ± 3 kg/m3 |
| COCCn1cc[n+](C)c1.F[B-](F)(F)F [1-(2-methoxyethyl)-3-methyl-imidazolium tetrafluoroborate] | 1306 ± 7 kg/m3 | 35.31 ± 0.64 mN/m | – |
| CCCCCCCC[N+](C)(CCCCCCCC)CCCCCCCC.[Cl-] [N-methyl-N,N-dioctyl-1-octanaminium chloride] | 891 ± 6 kg/m3 | 26.44 ± 0.49 mN/m | mass density ([2]; 298.15 K): 896 ± 18 kg/m3 |
| CCCCn1cc[n+](C)c1C.O=S(=O)([N-]S(=O)(=O)C(F)(F)F)C(F)(F)F + O | – | – | interfacial tension [1]: 17.04 ± 1.3 mN/m |

Reference: the NIST ThermoML archive (doi:10.1021/je900502s)
